For orientation: IC50 means the point on the concentration scale where inhibition reaches its midpoint.

This is an account of results in patent publication US20250186450A1, “COMBINATION THERAPY COMPRISING DGK INHIBITORS and PD-1/PD-L1 INHIBITORS” (Incyte Corporation, priority 2023, published 2025).

One test concerns the target DGKα (Homo sapiens (Human), UniProt P23743). The test is described as follows: In vitro DGKα inhibition assay (ADP-Glo). The format is biochemical. The conditions noted are these: 0.1 nM DGKα, 50 μM ATP, 20 μM DLG. How it is done:
(§1) The DGKα and DGKζ biochemical reactions were performed using His-tagged human recombinant enzymes (Signal Chem, DGKα, #D21-10BH; DGKζ, #D30-10H)) and DLG (Dilauroyl-sn-glycerol) lipid substrate (Signal Chem, #D430-59). ADP-Glo assay was performed using ADP-Glo™ kinase Assay kit (Promega, #V9104). The reactions were carried out in assay buffer containing 40 mM Tris, pH 7.5, 0.1% CHAPS, 0.1% Prionex, 40 mM NaCl, 5 mM MgCl2, 1 mM CaCl2, and 1 mM DTT. DGKα reactions contained 0.1 nM DGKα, 50 μM ATP, and 20 μM DLG. And DGKζ reactions contained 0.4 nM DGKζ, 30 μM ATP, and 20 μM DLG.
(§2) For compound inhibition studies, 40 nL test compound in DMSO was added to wells of white polystyrene plates in 384-well (Greiner, #784075) or 1536-well format (Greiner, #782075). Compounds were added with top concentration of 2 mM with 11 point, 3-fold dilution series. Enzyme solution (contains 2×DGK enzyme concentration in 1× assay buffer) was added to the plate in 2 μL/well volume, followed by 2 μL/well of substrate solution (contains 2× concentration of ATP and DLG substrate in 1× assay buffer). Plates were then centrifuged for 1 min at 1200 RPM and sealed or lidded. For 4 μL reaction volume, test compounds were therefore diluted 100× to final top concentration of 20 μM. After 90 minute incubation, reactions were quenched by addition of 2 μL/well Promega ADP-Glo Reagent, followed by centrifugation and lidding. After 60 min incubation, 2 μL/well Promega Kinase Detection Reagent was added, plates centrifuged, and incubated for 30 min. Plates were then read using Luminescence method on BMG PHERAstar FSX plate reader. Percent inhibition was calculated and IC50s were determined using 4-parameter fit in Genedata Screener. Labcyte Echo acoustic dispenser was used for compound addition, and Formulatrix Tempest liquid handler was used for all reagent dispenses.

Another test has as its target DGKζ (Homo sapiens (Human), UniProt Q13574). The test is described as follows: In vitro DGKζ inhibition assay (ADP-Glo). The format is biochemical. The conditions noted are these: 0.4 nM DGKζ, 30 μM ATP, 20 μM DLG. How it is done:
as §1, §2

DGKζ, sequence (Q13574 whole entry): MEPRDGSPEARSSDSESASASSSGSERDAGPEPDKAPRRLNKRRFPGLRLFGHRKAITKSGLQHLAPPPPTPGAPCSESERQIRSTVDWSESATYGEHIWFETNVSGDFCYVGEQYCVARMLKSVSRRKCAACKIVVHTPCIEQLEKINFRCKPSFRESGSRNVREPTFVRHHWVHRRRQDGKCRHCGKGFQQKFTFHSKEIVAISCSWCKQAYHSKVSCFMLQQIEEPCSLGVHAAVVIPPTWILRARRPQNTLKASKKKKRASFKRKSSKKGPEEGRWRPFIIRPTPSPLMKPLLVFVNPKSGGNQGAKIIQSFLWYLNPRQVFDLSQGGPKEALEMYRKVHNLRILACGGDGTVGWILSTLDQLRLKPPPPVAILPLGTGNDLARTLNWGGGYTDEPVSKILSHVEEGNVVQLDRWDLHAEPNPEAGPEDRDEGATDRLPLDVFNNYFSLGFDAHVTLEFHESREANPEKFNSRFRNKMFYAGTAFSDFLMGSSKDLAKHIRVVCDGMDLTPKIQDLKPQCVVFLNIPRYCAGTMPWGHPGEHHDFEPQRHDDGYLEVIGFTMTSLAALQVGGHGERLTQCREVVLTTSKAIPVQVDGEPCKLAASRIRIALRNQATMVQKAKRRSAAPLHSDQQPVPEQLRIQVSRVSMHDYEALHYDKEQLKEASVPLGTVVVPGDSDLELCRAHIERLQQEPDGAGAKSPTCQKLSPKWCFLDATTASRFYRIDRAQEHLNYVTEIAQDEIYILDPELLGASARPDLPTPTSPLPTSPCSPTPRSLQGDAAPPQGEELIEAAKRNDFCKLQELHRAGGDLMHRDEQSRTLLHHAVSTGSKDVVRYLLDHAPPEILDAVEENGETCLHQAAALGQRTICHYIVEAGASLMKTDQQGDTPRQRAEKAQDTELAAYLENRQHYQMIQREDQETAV
DGKα, sequence (P23743 whole entry): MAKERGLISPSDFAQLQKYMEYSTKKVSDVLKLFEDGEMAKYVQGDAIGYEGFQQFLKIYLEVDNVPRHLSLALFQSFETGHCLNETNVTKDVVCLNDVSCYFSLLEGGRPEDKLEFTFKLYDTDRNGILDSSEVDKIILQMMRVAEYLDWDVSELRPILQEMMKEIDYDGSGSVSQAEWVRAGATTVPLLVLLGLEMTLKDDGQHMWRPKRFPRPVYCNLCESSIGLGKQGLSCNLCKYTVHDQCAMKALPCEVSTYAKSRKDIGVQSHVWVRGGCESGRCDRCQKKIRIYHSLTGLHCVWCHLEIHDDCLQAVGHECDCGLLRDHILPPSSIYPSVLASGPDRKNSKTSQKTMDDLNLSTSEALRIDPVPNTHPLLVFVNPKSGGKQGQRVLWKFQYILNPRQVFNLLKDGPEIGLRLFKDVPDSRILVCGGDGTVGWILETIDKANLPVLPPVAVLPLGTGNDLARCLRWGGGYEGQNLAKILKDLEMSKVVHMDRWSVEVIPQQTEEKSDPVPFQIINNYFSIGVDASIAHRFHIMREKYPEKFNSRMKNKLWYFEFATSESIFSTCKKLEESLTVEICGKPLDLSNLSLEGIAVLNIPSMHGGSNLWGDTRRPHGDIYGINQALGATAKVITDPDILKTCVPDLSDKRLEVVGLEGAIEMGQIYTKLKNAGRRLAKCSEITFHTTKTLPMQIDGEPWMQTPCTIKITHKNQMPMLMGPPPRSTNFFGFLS

Regarding `CC(C)CC(c1ccc(Cl)cc1)N1C[C@H](C)N(c2nc3nncn3c3c2ncn3C[C@@H]2CCCO2)C[C@H]1C` (single isomer, unassigned) [Example 10], the IC50 against DGKα and at DGKζ was at most 20 nM each time.
For `C[C@@H]1CN(c2nc3nncn3c3c2ncn3C[C@@H]2CCCO2)[C@@H](C)CN1C(c1ccc(Cl)cc1)[C@@H]1CC1(F)F` (single isomer, unassigned) [Example 7], the IC50 against DGKα and against DGKζ was at most 20 nM each time.
Turning to `Cc1nc2c(N3C[C@@H](C)N(C(c4ccc(Cl)c(F)c4)C4CC(F)(F)C4)C[C@@H]3C)nc3nncn3c2n1C[C@@H]1CCCO1` (single isomer, unassigned) [Example 4], the IC50 against DGKα and against DGKζ was at most 20 nM each time.
On to `C[C@@H]1CN(c2nc3nncn3c3c2ncn3C[C@@H]2CCCO2)[C@@H](C)CN1C(c1ccc(Cl)cc1)C1CC(F)(F)C1` (stereo partly drawn) [Example 12, 4-((2S,5R)-4-((4-Chlorophenyl)(3,3-difluorocyclobutyl)methyl)-2,5-dimethylpiperazin-1-yl)-1-(((S)-tetrahydrofuran-2-yl)methyl)-1H-[1,2,4]triazolo[3,4-b]purine], for which the IC50 at DGKα and on DGKζ was at most 20 nM throughout.
Regarding `Cc1nc2c(N3C[C@@H](C)N(C(c4ccc(Cl)cc4)C4CC(F)(F)C4)C[C@@H]3C)cc3nncn3c2n1C[C@@H]1CCCO1` (single isomer, unassigned) [Example 23], the IC50 against DGKα and on DGKζ was at most 20 nM throughout.
As for `C[C@@H]1CN(c2cc3nncn3c3c2ncn3C[C@@H]2CCCO2)[C@@H](C)CN1C(c1ccc(Cl)cc1)[C@@H]1CC1(F)F` (single isomer, unassigned) [Example 18], the IC50 on DGKα was at most 20 nM; against DGKζ, 20 to 200 nM.
Regarding `C[C@@H]1CN(c2nc3nncn3c3c2ncn3C[C@@H]2CCCO2)[C@@H](C)CN1C(c1ccc(C(F)(F)F)cc1)C1CC(F)(F)C1` (single isomer, unassigned) [Example 6], the IC50 against DGKα and at DGKζ was at most 20 nM in each case.
Turning to `Cc1nc2c(N3C[C@@H](C)N(C(c4ccc(Cl)cc4)[C@@H]4CC4(F)F)C[C@@H]3C)nc3nncn3c2n1C[C@@H]1CCCO1` (single isomer, unassigned) [Example 9], the IC50 against DGKα and against DGKζ was at most 20 nM throughout.
In the case of `Cc1nc2c(N3C[C@@H](C)N(Cc4ccc(C(F)(F)F)cc4F)C[C@@H]3C)nc3nncn3c2n1C[C@@H]1CCCO1` [Example 14, 4-((2S,5R)-4-(2-Fluoro-4-(trifluoromethyl)benzyl)-2,5-dimethylpiperazin-1-yl)-2-methyl-1-(((S)-tetrahydrofuran-2-yl)methyl)-1H-[1,2,4]triazolo[3,4-b]purine], the IC50 against DGKα and against DGKζ was at most 20 nM throughout.
`CC[C@@H]1CN(c2cc3nncn3c3c2nc(C)n3C[C@@H]2CCCO2)[C@@H](C)CN1C(c1ccc(Cl)cc1)C1CC(F)(F)C1` (single isomer, unassigned) [Example 19]: the IC50 on DGKα and against DGKζ was at most 20 nM throughout.
`Cc1nc2c(N3C[C@@H](C)N(C(c4ccc(C(F)(F)F)cc4)C4CC(F)(F)C4)C[C@@H]3C)cc3nncn3c2n1C[C@@H]1CCCO1` (single isomer, unassigned) [Example 17]: the IC50 on DGKα and against DGKζ was at most 20 nM each time.
Consider `CC[C@@H]1CN(c2nc3nncn3c3c2ncn3C[C@@H]2CCCO2)[C@@H](C)CN1C(c1ccc(Cl)cc1)C1CC(F)(F)C1` (stereo partly drawn) [Example 13, 4-((2S,5R)-4-((4-Chlorophenyl)(3,3-difluorocyclobutyl)methyl)-5-ethyl-2-methylpiperazin-1-yl)-1-(((S)-tetrahydrofuran-2-yl)methyl)-1H-[1,2,4]triazolo[3,4-b]purine], for which the IC50 at DGKα and on DGKζ was at most 20 nM in each case.
Turning to `C[C@@H]1CN(c2nc3nncn3c3c2ncn3C[C@@H]2CCCO2)[C@@H](C)CN1C(c1ccc(Cl)cc1)[C@H]1CC1(F)F` (single isomer, unassigned) [Example 8], the IC50 against DGKα and on DGKζ was at most 20 nM throughout.
